Measured values: US6524863B1, “High throughput HPLC method for determining Log P values” (Scynexis Chemistry & Automation, Inc., priority 1999, dated 2003)
Where two headings read alike, the source gives them in different places.

Key:
[1] = Gradient HPLC Log P determination from retention time (new method)
Method: (§1) An evaporated light scattering detector (Richard Scientific) and a platform LC mass spectrometer (Micromass) were used as detectors.
(§2) The mobile phase was a binary gradient of methanol/water. The stationary phase was a 4.6×50 mm column packed with 5 micron ODS-AQ. The injection size was 5 μL. The mobile phase gradient was adjusted to obtain a Log P nearly equal to the retention time on the HPLC column.
(§3) After 6.1 minutes, the column was set to re-equilibrate.
(§4) Retention times (X), shake flask log P (Y), slope and intercept from the above plot were used to calculate log P for these standards.
(§5) When log P was plotted versus the log of the capacity factor K for these standards, an following exponential curve was obtained, as shown in FIG. 3.
(§6) Using this exponential equation and HPLC retention times of these standards, Log P and Log K were calculated and compared with the retention times and literature Log P values.

Isocratic HPLC Log P = conditions: for Isocratic Log P: isocratic method, no details given
From the text: (§7) Isocratic data, measured at certain eluent compositions (typically as log k′x, for a given eluent composition X), can be used to calculate Log P data.

[2] = cited from earlier work
physchem [3] = experiment: physchem
From the text: as §7

physchem [4] = experiment: physchem; remark: listed apart in the source
Method: as §1, §2, §3, §4, §5, §6

[5] = Log P calc. by slope, calculated from Log K (capacity factor) with exponential equation Y=0.6972e^1.5966X
[6] = New Method Calc. Log P Y = 1.009X + 0.029, calculated from average gradient HPLC retention time X (ODS-AQ 4.6×50 mm, methanol/water), linear fit
[7] = shake flask Log P values (lit.), Table 2
[8] = shake flask, literature, Table 3
[9] = shake flask, literature, Table 4
[10] = New Method Calc. Log P Y = 1.009X + 0.029

Row | chromatographic logP [1, 6] | chromatographic logP (Isocratic HPLC Log P) | SMILES | chromatographic logP (physchem [3]) | chromatographic logP (physchem [4]; Log P calc. by slope) | chromatographic logP (physchem [4]; [10]) | other results
1 | 0.68 | 0.96 | CNC(=O)c1ccccc1 [standard 3, N-methyl benzamide] |  |  |  | chromatographic logP [1, 5]: 0.75; Lit. Log P [2, 7]: 0.86; Lit. Log P [2, 8]: 0.86; Lit. Log P [2, 9]: 0.86
2 | 1.94 | 2.54 | CC(=O)c1ccccc1 [standard 6, acetophenone] |  |  |  | chromatographic logP [1, 5]: 2.22; Lit. Log P [2, 7]: 2.13; Lit. Log P [2, 8]: 2.13; Lit. Log P [2, 9]: 2.13
3 | 0.32 | -1.05 | O=c1cc[nH]c(=O)[nH]1 [standard 1, uracil] |  |  |  | 
4 |  |  | CCCN(CCC)c1c([N+](=O)[O-])cc(C(F)(F)F)cc1[N+](=O)[O-] [standard 14, trifluralin] | 5 | 4.57 | 4.88 | 
5 | 4.33 | 4.31 | c1ccc(Sc2ccccc2)cc1 [standard 13, phenyl sulfide] |  |  |  | chromatographic logP [1, 5]: 4.17; Lit. Log P [2, 7]: 4.45; Lit. Log P [2, 8]: 4.45; Lit. Log P [2, 9]: 4.45
6 |  |  | CCOP(=S)(OCC)Oc1ccc([N+](=O)[O-])cc1 [standard 9, diethyl parathion] |  |  |  | Isocratic Log P (Isocratic HPLC Log P): 3.39
7 |  |  | ClC(Cl)=C(c1ccc(Cl)cc1)c1ccc(Cl)cc1 [standard 16, DDE] |  |  |  | Isocratic Log P (Isocratic HPLC Log P): 6.28
8 |  |  | c1ccc2cc3ccccc3cc2c1 [standard 12, anthracene] | 4.46 | 4.27 |  | 
9 |  |  | Brc1ccccc1 [standard 7, bromobenzene] | 3.23 | 3.5 | 3.44 | 
10 |  |  | c1ccc(-c2ccccc2)cc1 [standard 10, biphenyl] | 3.8 |  | 4.07 | Log P calc. by slope ([1]; calculated from Log K (capacity factor) with exponential equation Y=0.6972e^1.5966X): 3.98
11 |  |  | Cc1ccc(Cl)cc1 [standard 8, p-chloro toluene] | 3.57 | 3.74 | 3.74 | 
12 |  |  | Cc1ccc2cc(C)ccc2c1 [standard 11, 2,6-dimethyl napthalene] |  |  |  | Isocratic Log P (Isocratic HPLC Log P): 4.49
13 |  |  | COc1ccc(C(c2ccc(OC)cc2)C(Cl)(Cl)Cl)cc1 [standard 15, methoxychlor] | 4.26 | 4.37 | 4.61 | 
14 | 0.56 | 0.41 | NC(=O)c1ccccc1 [standard 2, benzamide] |  |  |  | chromatographic logP [1, 5]: 0.58
15 | 0.98 | 0.96 | OCc1ccccc1 [standard 4, benzyl alcohol] |  |  |  | 
